Results from patent publication US6784153B1, “Methods of homing molecules to lung using membrane dipeptidase” (The Burnham Institute, priority 1998, dated 2004).
“Also recorded” adds a separate entry of the source.

Key:
liver = assay: in vivo panning of X7 library, liver; set-up: species or system mice
Protocol: (§1) Following various in vivo panning screens, hundreds of thousands to millions of phage expressing homing peptides were recovered from the respective organ or tissue. Generally, the phage collected from a round of in vivo panning were plated on agar, about 250 to 300 clones were selected, grown in 5 ml cultures, then pooled and readministered for a subsequent round of in vivo panning (“regular method”). However, in some experiments, 1000 clones were selected, grown in 2 ml cultures, then pooled and administered for a subsequent round of screening; or the entire agar plate was scraped and all of the phage were cultured together and administered for a subsequent round of screening. The peptide inserts of various isolated phage were determined such that, of the millions of phage that homed, only a small number of sequences were identified.
Also provided are liver homing peptides. Such peptides were identified by injection of an X7 (SEQ ID NO: 29) library into mice. The peptides were isolated by the regular method (see Example II, Table 1, and Table 11, below).
(§2) Organ samples were washed 3 times with ice cold DMEM-PI containing 1% bovine serum albumin (BSA), then directly incubated with 1 ml K91-kan bacteria for 1 hr. Ten ml NZY medium containing 0.2 μg/ml tetracycline (NZY/tet) was added to the bacterial culture, the mixture was incubated in a 37° C. shaker for 1 hr, then 200 μl aliquots were plated in agar plates containing 40 μg/ml tetracycline (tet/agar).
Approximately 250 to 300 individual bacterial colonies containing phage recovered from the various organs or tissues were grown for 16 hr in 5 ml NZY/tet. In some experiments, approximately 1000 individual bacteria containing phage were picked and the phage were amplified in 2 ml of NZY/tet or the entire plate containing phage was scraped, pooled and grown in bulk and processed for injection. […] Phage DNA was purified from individual bacterial colonies obtained and the DNA sequences encoding the peptides expressed by selected phage were determined (see Koivunen et al., supra, 1994b).

adrenal gland = assay: in vivo panning of X7 library, adrenal gland; set-up: species or system mice
Protocol: as §1
The invention also provides adrenal gland homing peptides such as LMLPRAD (SEQ ID NO: 27) and LPRYLLS (SEQ ID NO: 28), which share a LPR motif (see Table 11), or the peptides R(Y/F)LLAGG (SEQ ID NO: 404) and RYPLAGG (SEQ ID NO: 389), which share the motif LAGG (SEQ ID NO: 430; see Table 10). The exemplified adrenal gland homing peptides were identified by injection of an X7 (SEQ ID NO: 29) library into mice. The peptides were isolated by the regular method.
as §2
Approximately 250 to 300 individual bacterial colonies containing phage recovered from the various organs or tissues were grown for 16 hr in 5 ml NZY/tet. […] Phage DNA was purified from individual bacterial colonies obtained and the DNA sequences encoding the peptides expressed by selected phage were determined (see Koivunen et al., supra, 1994b).

murine MDP = target: T1, murine MDP (Mus musculus, UniProt P31428); assay: phage binding to COS-1 cells transfected with MDP; conditions: 5×10^6 COS-1 cells, 10^10 TU phage
T1 construct: The amplified 1.3 kb murine MDP cDNA was digested with KpnI and XbaI, and inserted into the same sites of the pcDNA3 expression vector; expressed in transfected cells; host or cells: COS-1 cells, pcDNA3 expression vector
T1 sequence (P31428 17-384): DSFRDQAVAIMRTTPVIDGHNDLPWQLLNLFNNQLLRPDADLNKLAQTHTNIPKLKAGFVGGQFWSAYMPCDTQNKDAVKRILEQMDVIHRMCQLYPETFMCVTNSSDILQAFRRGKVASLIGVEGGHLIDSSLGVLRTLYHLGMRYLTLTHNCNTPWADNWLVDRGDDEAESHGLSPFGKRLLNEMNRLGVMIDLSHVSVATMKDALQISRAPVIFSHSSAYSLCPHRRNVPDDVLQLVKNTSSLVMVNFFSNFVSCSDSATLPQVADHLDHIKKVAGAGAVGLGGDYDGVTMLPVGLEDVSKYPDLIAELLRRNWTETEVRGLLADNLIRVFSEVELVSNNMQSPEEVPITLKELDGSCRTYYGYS
Protocol: The COS-1 cell line, which is known to have low or no detectable level of MDP activity, has been used extensively to study MDP structure and function (Keynan et al., supra, 1996; Keynan et al., Biochem, J. 326:47-51 (1997)). COS-1 cells were trasfected with murine MDP and used to assay binding to SEQ ID NOS: 1 and 2 as described below.
For transfection into COS-1 cells, a murine MDP expression vector was prepared as follows. Total mouse lung RNA was isolated using Qiagen RNA purification columns (Qiagen; Santa Clarita, Calif.) and used as a template for first strand cDNA synthesis with reverse transcriptase and a mixture of random hexamers and poly-dT oligonucleotides (GIBCO/BRL; Grand Island, N.Y.). Mouse MDP cDNA (Pasqualini et al., J. Cell Biol. 130:1189-1196 (1995)) was amplified from the cDNA pool by PCR using the oligonucleotide pair: […] (SEQ ID NO: 446), which contains a KpnI adaptor, and […] (SEQ ID NO: 447), which contains an XbaI adaptor, using Taq polymerase from GIBCO/BRL. The amplified 1.3 kb murine MDP cDNA was digested with KpnI and XbaI, and inserted into the same sites of the pcDNA3 expression vector (Invitrogen; Carlsbad, Calif.) using DNA restriction enzymes and T4 DNA ligase from New England Biolabs (Beverly, Mass.). Successful cloning of the murine MDP cDNA was confirmed by DNA sequencing. Transfection of the COS-1 cells was performed with the Superfect Reagent from Qiagen as recommended by the manufacturer.
Phage binding to COS-1 cells transfected with MDP was determined as follows. Briefly, 10^7 COS-1 cells were transfected with 10 μg of either the MDP expression vector or the vector alone. After 48 hours, cells were scraped gently from the dish, washed once, and subjected to the phage binding assay or membrane dipeptidase activity assay described above. For the phage binding assay, 5×10^6 cells and 10^10 transducing units (TU) of phage input were used. For measurement of membrane dipeptidase activity, 10^6 cells were lysed in 100 μl of PBS/octylglycoside without protease inhibitors. A 10 μl aliquot of the extract was used to measure MDP activity.

lung = assay: in vivo homing of phage displaying peptides to lung; set-up: species or system mice
Protocol: (§3) For lung and pancreas, a mixture of phage libraries containing 10^10 TU was diluted in 200 μl DMEM and injected into the tail vein of anesthetized BALB/c mice (2 month old; Harlan Sprague Dawley; San Diego Calif.); AVERTIN (0.017 ml/g) was used as anesthetic (Pasqualini and Ruoslahti, supra, 1996). After 1-4 minutes, mice were snap frozen in liquid nitrogen or, after about 5 minutes of phage circulation, the mice were perfused through the heart with 5-10 ml of DMEM (SIGMA; St. Louis Mo.). To recover the phage, the organs from the perfused mice or partially thawed organs from snap frozen mice were collected and weighed, then were homogenized in 1 ml DMEM-PI (DMEM containing protease inhibitors (PI); phenylmethyl sulfonyl fluoride (PMSF; 1 mM), aprotinin (20 μg/ml), leupeptin (1 μg/ml)).
as §2
(§4) Approximately 250 to 300 individual bacterial colonies containing phage recovered from the various organs or tissues were grown for 16 hr in 5 ml NZY/tet. In some experiments, approximately 1000 individual bacteria containing phage were picked and the phage were amplified in 2 ml of NZY/tet or the entire plate containing phage was scraped, pooled and grown in bulk and processed for injection. Where phage were cultured separately, the cultures were pooled and the phage were injected into mice or rats as described above for a second round of in vivo panning. In some experiments, a third or fourth round of panning was performed. Phage DNA was purified from individual bacterial colonies obtained and the DNA sequences encoding the peptides expressed by selected phage were determined (see Koivunen et al., supra, 1994b).
After two or three rounds of in vivo panning of mice injected with a cyclic CX3CX3CX3C (SEQ ID NO: 25) or a cyclic CX6C (SEQ ID NO: 26) phage display library, four peptides that homed to lung were identified.
To determine the specificity of lung homing of the individual peptides identified, phage displaying the peptides were amplified individually, diluted to the same input titer and administered to mice. Following administration, control kidney and brain organ was removed and the number of TU of phage in lung, kidney and brain was determined. The results shown in FIG. 2 reveal that 10× and 35× more phage having the peptide sequence CGFECVRQCPERC (SEQ ID NO: 1; GFE-1) bound to lung than to kidney and brain, respectively. […] The lung homing peptides CGFECVRQCPERC (SEQ ID NO: 1; GFE-1), CGFELETC (SEQ ID NO: 2; GFE-2), CTLRDRNC (SEQ ID NO: 15) and CIGEVEVC (SEQ ID NO: 16) are enriched in lung at 35×, 9×, 6× and 5×, respectively, over unselected phage (see FIG. 2).

pancreas [1] = assay: immunohistologic analysis of pancreas homing phage; format: in vivo, mice
Protocol: Phage displaying homing peptides were detected in lung, pancreas and skin by immunostaining histologic sections obtained 5 min after administration of phage expressing a lung, pancreas or skin homing peptide (“peptide-phage”) to a mouse. Following administration of the peptide-phage, mice were handled as described above and various organs, including lung, pancreas and skin, were removed and fixed in Bouin's solution (SIGMA). Histologic sections were prepared and reacted with anti-M13 (phage) antibodies (Pharmacia Biotech; see U.S. Pat. No. 5,622,699, supra, 1997; Pasqualini and Ruoslahti, supra, 1996). Visualization of the bound anti-M13 antibody was performed using a second antibody conjugated to peroxidase (SIGMA) according to the manufacturer's instructions.
(§5) Similar experiments were performed in pancreas using phage displaying the pancreas homing peptide, SWCEPGWCR (SEQ ID NO: 4). In these experiments, histological samples of the pancreas as well as control organs and tissues including lung and skin were prepared and examined by immunostaining as described above. […] Moreover, after intravenous injection of phage displaying SWCEPGWCR (SEQ ID NO: 4), the phage was recovered from uterus at a 6× higher level in comparison to unselected phage. Thus, SWCEPGWCR (SEQ ID NO: 4) homes to both pancreas and uterus.

uterus = assay: homing of pancreas homing phage to uterus; format: in vivo, mice
Protocol: as §5

pancreas [2] = assay: in vivo homing of phage displaying peptides to pancreas; set-up: species or system mice
Protocol: as §3, §2, §4
After two or three rounds of in vivo panning of mice injected with a cyclic CX7C (SEQ ID NO: 24) phage display library, various pancreas homing peptides were identified (Table 3). In particular, the peptide sequence SWCEPGWCR (SEQ ID NO: 4) appeared repeatedly in the pancreas. To determine the specificity of SWCEPGWCR (SEQ ID NO: 4), a phage displaying the sequence was amplified individually, diluted to the same input titer and administered to mice. Following administration, control brain organ was removed and the number of TU of phage in each pancreas and was determined.

[3] = individually amplified phage, FIG. 2

SRRFVGG [peptide from phage recovered from liver]
% OF MOTIF AMONG ALL CLONES (liver): 6%

LMLPRAD [peptide from phage recovered from adrenal gland]
% OF MOTIF AMONG ALL CLONES (adrenal gland; ADRENAL GLAND): 11% | adrenal gland/brain homing ratio (adrenal gland; ADRENAL GLAND section, adrenal gland as compared to brain): 50 | enrichment in adrenal gland as compared to brain (adrenal gland; mouse, in vivo): 50 fold

VKSVCRT [peptide from phage recovered from liver]
% OF MOTIF AMONG ALL CLONES (liver): 11%

WRQNMPL [peptide from phage recovered from liver]
% OF MOTIF AMONG ALL CLONES (liver): 6%

CGFELETC [lung homing peptide]
phage bound to MDP transfected cells than to mock transfected cells (murine MDP): also bound MDP transfected cells | % OF MOTIF AMONG ALL CLONES (lung; LUNG): 5% | LUNG/BRAIN RATIO (lung; LUNG section): 9 | homing of lung homing phage to control kidney or brain (lung; control organs): few phage detected in kidney or brain; also recorded: no selective homing to kidney or brain was detected | enriched in lung over unselected phage (lung; [3]): 9 × | phage bound to lung than to brain (lung; [3]): 20 × | phage bound to lung than to kidney (lung; [3]): 12 × | enrichment in lung as compared to unselected phage (lung; mouse, in vivo): 9 fold

SWCEPGWCR [pancreas homing peptide]
immunostaining of pancreas (pancreas [1]; 5 min after phage): staining in the capillaries and larger blood vessels of the exocrine pancreas | staining of lung and skin after pancreas homing phage (pancreas [1]; control tissues): nor was any staining observed in lung and skin | phage recovered from uterus in comparison to unselected phage (uterus; after intravenous injection): 6 × | staining of uterus (uterus; immunostaining): some staining of blood vessels within the uterus | % OF MOTIF AMONG ALL CLONES (pancreas [2]; PANCREAS (value printed on the SKIN heading line)): 9% | pancreas/brain phage ratio (pancreas [2]; PANCREAS section, pancreas as compared to brain): 20 | phage bound to pancreas than to brain (pancreas [2]; individually amplified phage): 10 × and up to 20 × | enrichment of phage to the pancreas as compared to unselected phage (pancreas [2]; mouse, in vivo): 22 × | selectivity for pancreas over unselected phage and over brain (pancreas [2]; mouse, in vivo): 20 fold
